Reference: patent US8952024B2, “Herbicidal pyrimidone derivatives” (E I du Pont de Nemours and Company, priority 2009, dated 2015)

Columns and labels:
Format in all cases: in vivo
[1] = test system: morningglory (Ipomoea spp.); assay: Test A pre-/postemergence plant response
How it was run: (§1)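 Each species was treated preemergence via directed soil spray and postemergence at the one- to two-leaf stage, with compounds formulated in a non-phytotoxic solvent plus surfactant. Visual injury relative to untreated controls was rated after about ten days on a 0–100 scale.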

[2] = test system: pigweed (Amaranthus retroflexus); assay: Test A pre-/postemergence plant response
How it was run: as §1

[3] = test system: giant foxtail (Setaria faberii); assay: Test B pre-/postemergence plant response
How it was run: (§2)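 Response scores were assigned visually after 13 to 15 days in a greenhouse, comparing treated pots with controls on a 0–100 scale where 100 denotes complete control. Preemergence treatments went onto freshly seeded loam/sand soil; postemergence treatments onto plants 2 to 18 cm tall.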

[4] = test system: goosegrass (Eleusine indica); assay: Test B pre-/postemergence plant response
How it was run: as §2

[5] = test system: johnsongrass (Sorghum halepense); assay: Test B pre-/postemergence plant response
How it was run: as §2

[6] = test system: morningglory (Ipomoea coccinea); assay: Test B pre-/postemergence plant response
How it was run: as §2

[7] = test system: wheat (Triticum aestivum); assay: Test B pre-/postemergence plant response
How it was run: as §2

[8] = test system: woolly cupgrass (Eriochloa villosa); assay: Test B pre-/postemergence plant response
How it was run: as §2

[9] = test system: barnyardgrass (Echinochloa crus-galli); assay: Test B flooded paddy test
How it was run: (§3)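 Visual scores run from 0 (no effect) to 100 (complete control), assigned by comparison with controls 13 to 15 days after treatment. Test compounds went straight into water standing 3 cm above the soil, around plants at the 2-leaf stage kept in a greenhouse.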

[10] = test system: ducksalad (Heteranthera limosa); assay: Test B flooded paddy test
How it was run: as §3

rice (Oryza sativa) = assay: Test B flooded paddy test
How it was run: as §3

[11] = test system: umbrella sedge (Cyperus difformis); assay: Test B flooded paddy test
How it was run: as §3

[12] = Postemergence, 125 g ai/ha, visual injury, 0 to 100 scale (0 no effect, 100 complete control), approx. ten days
[13] = Postemergence, 500 g ai/ha, 0 to 100 scale, 0 = no effect, 100 = complete control, approx. ten days
[14] = Preemergence, 125 g ai/ha, 0 to 100 scale, 0 = no effect, 100 = complete control
[15] = Preemergence, 500 g ai/ha, visual injury, 0 to 100 scale (0 no effect, 100 complete control), approx. ten days
[16] = 250 g ai/ha, Preemergence, 0 to 100 scale
[17] = Postemergence, 31 g ai/ha, scale 0 to 100 (0 no effect, 100 complete control)
[18] = Postemergence, 62 g ai/ha, scale 0 (no effect) to 100 (complete control), 13 to 15 days
[19] = Postemergence, 125 g ai/ha, visual rating after 13 to 15 days, scale 0 (no effect) to 100 (complete control)
[20] = Postemergence, 250 g ai/ha, scale 0 to 100
[21] = Preemergence, 31 g ai/ha, scale 0 to 100 (0 no effect, 100 complete control)
[22] = Preemergence, 62 g ai/ha, scale 0 to 100, 0 no effect, 100 complete control
[23] = Preemergence, 125 g ai/ha, 0 to 100 scale
[24] = 250 g ai/ha, flooded paddy test, visual rating on 0 to 100 scale (0 no effect, 100 complete control) after 13 to 15 days
[25] = Flood (flooded paddy test), 62 g ai/ha, scale 0 to 100, 0 is no effect, 100 is complete control, 13 to 15 days

SMILES: O=C1CCCC(O)=C1C(=O)c1cnc(-c2ccccc2)n(-c2ccc(F)cc2)c1=O [Compound 24]
- Morningglory plant response rating [1, 12]: 70
- Plant response rating, Morningglory [1, 13]: 100
- Plant response rating, Morningglory [1, 14]: 20
- Plant response rating, Morningglory [1, 15]: 80
- Pigweed plant response rating [2, 12]: 90
- Plant response rating, Pigweed [2, 13]: 100
- Plant response rating, Pigweed [2, 14]: 90
- Plant response rating, Pigweed [2, 15]: 100
- Plant response rating, Foxtail, Giant [3, 16]: 100
- Plant response rating, Foxtail, Giant [3, 17]: 70
- Plant response rating, Foxtail, Giant [3, 18]: 85
- Plant response rating, Foxtail, Giant [3, 19]: 90
- Foxtail, Giant plant response rating [3, 20]: 95
- Plant response rating, Foxtail, Giant [3, 21]: 30
- Plant response rating, Foxtail, Giant [3, 22]: 85
- Foxtail, Giant plant response rating [3, 23]: 90
- Plant response rating, Goosegrass [4, 16]: 100
- Plant response rating, Goosegrass [4, 17]: 85
- Plant response rating, Goosegrass [4, 18]: 85
- Plant response rating, Goosegrass [4, 19]: 85
- Goosegrass plant response rating [4, 20]: 98
- Plant response rating, Goosegrass [4, 21]: 85
- Goosegrass plant response rating [4, 23]: 100
- Plant response rating, Johnsongrass [5, 16]: 90
- Plant response rating, Johnsongrass [5, 17]: 60
- Plant response rating, Johnsongrass [5, 18]: 60
- Plant response rating, Johnsongrass [5, 19]: 70
- Johnsongrass plant response rating [5, 20]: 80
- Plant response rating, Johnsongrass [5, 21]: 20
- Plant response rating, Johnsongrass [5, 22]: 85
- Johnsongrass plant response rating [5, 23]: 90
- Plant response rating, Morningglory [6, 16]: 100
- Plant response rating, Morningglory [6, 17]: 50
- Plant response rating, Morningglory [6, 18]: 60
- Plant response rating, Morningglory [6, 19]: 60
- Morningglory plant response rating [6, 20]: 90
- Plant response rating, Morningglory [6, 21]: 100
- Plant response rating, Morningglory [6, 22]: 100
- Morningglory plant response rating [6, 23]: 100
- Plant response rating, Wheat [7, 16]: 0
- Plant response rating, Wheat [7, 17]: 5
- Plant response rating, Wheat [7, 18]: 10
- Plant response rating, Wheat [7, 19]: 30
- Wheat plant response rating [7, 20]: 50
- Plant response rating, Wheat [7, 21]: 0
- Plant response rating, Wheat [7, 22]: 0
- Wheat plant response rating [7, 23]: 0
- Plant response rating, Cupgrass, Woolly [8, 16]: 90
- Plant response rating, Cupgrass, Woolly [8, 17]: 80
- Plant response rating, Cupgrass, Woolly [8, 18]: 80
- Plant response rating, Cupgrass, Woolly [8, 19]: 95
- Cupgrass, Woolly plant response rating [8, 20]: 95
- Plant response rating, Cupgrass, Woolly [8, 21]: 5
- Plant response rating, Cupgrass, Woolly [8, 22]: 70
- Cupgrass, Woolly plant response rating [8, 23]: 85
- Plant response rating, Flood, Barnyardgrass [9, 24]: 20
- Plant response rating, Barnyardgrass [9, 25]: 0
- Plant response rating, Flood, Ducksalad [10, 24]: 75
- Plant response rating, Ducksalad [10, 25]: 20
- Plant response rating, Flood, Rice (rice (Oryza sativa); [24]): 0
- Plant response rating, Rice (rice (Oryza sativa); [25]): 0
- Plant response rating, Flood, Sedge, Umbrella [11, 24]: 75
- Plant response rating, Sedge, Umbrella [11, 25]: 0
